The test system of data set [1] is Rat skeletal muscle cell strain L6 cells. The data set can be described thus: Effect of accelerating the glucose uptake in cultured skeletal muscle cells ([3H]-2-deoxyglucose uptake). It counts as cell-based. The following applies: 10 min, 10 μM compound, cultured overnight, 2DG uptake in L6 myotubes, 37° C. 10 minutes, compared with the control group. The protocol:
Effect of accelerating the glucose uptake in cultured skeletal muscle cells: Method: Rat skeletal muscle cell strain “L6 cells” in a confluent state was cultured in DME medium containing 2% of fetal calf serum for one week to differentiate into myotubes. The medium was replaced with the DME medium containing a compound synthesized in each of the above Reference Examples. After culturing overnight followed by the thorough washing with HEPES buffer solution, an HEPES buffer solution containing 37 kBq/ml of 10 μM [3H]-2-deoxyglucose (2DG) was added thereto. After the culture at 37° C. for 10 minutes, the radioactivity of 2DG transmigrated into the cells was determined. The effect (%) of each compound on 2DG uptake was determined as compared with that in the control group.

Data set [2] relates to non-insulin-dependent diabetes model mice (KK mice). The data set can be described thus: Hypoglycemic effect on non-insulin-dependent diabetes model mice (KK mice). It counts as in vivo. The settings on record: Mus musculus, 168 h; 30 mg/kg twice a day for one week, KK mice 8 weeks old; fasted overnight; calculated on the basis of blood glucose level (100) in the control group. On the procedure:
Hypoglycemic Effect on Non-Insulin-Dependent Diabetes Model Mice (KK Mice)
Method: A compound (30 mg/kg) was administered to non-insulin-dependent diabetes model mice (8 weeks old) twice a day for one week. After final administration, the mice were fasted overnight and then the blood glucose concentration of each mouse was determined. The hypoglycemic effect of the compound was calculated on the basis of the blood glucose level (100) in the control group.

Take `CCCCCC(=O)NS(=O)(=O)c1ccccc1NC(=O)c1ccc(C#Cc2ccccc2)cc1` [compound 49, N-[2-(4-Phenylethynylbenzamido)benzenesulfonyl]hexanamide]: the melting point fell in the range of 175 to 176 °C. In addition, the activity at 10 µM in data set [1] amounted to 212%. In addition, in data set [2], the inhibition in vivo at 30 mg/kg was 10.3%.

As for `CC(C)(C)C(=O)NS(=O)(=O)c1ccccc1NC(=O)c1ccc(C#Cc2ccccc2)cc1` [compound 51, N-[2-(4-Phenylethynylbenzamido)benzenesulfonyl]pivalamide], the melting point was 236 to 237 °C. For the same compound, the activity at 10 µM in data set [1] came to 225%.

With `CCCSCC(=O)NS(=O)(=O)c1ccccc1NC(=O)c1ccc(C#Cc2ccccc2)cc1` [compound 58, 4-Phenylethynyl-N-(2-(2-propylthioacetylamino)sulfonylphenyl]benzamide], the melting point lay in the range of 186 to 188 °C. For the same compound, the inhibition in vivo at 30 mg/kg in data set [2] is 22.7%.

`CCCCCC(=O)NS(=O)(=O)c1ccccc1NC(=O)c1ccc(C#Cc2cccc(C(F)(F)F)c2)cc1` [compound 60, 4-(3-Trifluoromethyl)phenylethynyl-N-(2-hexanoylaminosulfonylphenyl)benzamide] gave a melting point of 194 to 196 °C. The activity at 10 µM in data set [1] was 246%. In data set [2], the inhibition in vivo at 30 mg/kg was 51.1%.

Regarding `CC(=O)CCCC(=O)NS(=O)(=O)c1ccccc1NC(=O)c1ccc(C#Cc2cccc(C(F)(F)F)c2)cc1` [compound 61, 4-(3-Trifluoromethyl)phenylethynyl-N-(2-(5-ketohexanoylamino)sulfonylphenyl)benzamide], the melting point was 169 to 171 °C. Moreover, the inhibition in vivo at 30 mg/kg in data set [2] was 65.7%.

For the compound `CCCOCC(=O)NS(=O)(=O)c1ccccc1NC(=O)c1ccc(C#Cc2cccc(C(F)(F)F)c2)cc1` [compound 62, 4-(3-Trifluoromethyl)phenylethynyl-N-(2-(2-propyloxyacetylamino)sulfonylphenyl)benzamide], the melting point was 175 to 177 °C. In addition, the inhibition in vivo at 30 mg/kg in data set [2] is 60.9%.

Consider `CCCCCC(=O)NS(=O)(=O)c1ccccc1NC(=O)c1ccc(C#Cc2ccc(C(F)(F)F)cc2)cc1` [compound 64, 4-(4-Trifluoromethyl)phenylethynyl-N-(2-hexanoylaminosulfonylphenyl)benzamide], for which the melting point is 210 to 212 °C. The activity at 10 µM in data set [1] is 204%. Moreover, the inhibition in vivo at 30 mg/kg in data set [2] was 34.5%.

For `CCCCCC(=O)NS(=O)(=O)c1ccccc1NC(=O)c1ccc(C#Cc2ccc(OC(F)(F)F)cc2)cc1` [compound 66, 4-(4-Trifluoromethoxyl)phenylethynyl-N-(2-hexanoylaminosulfonylphenyl)benzamide], the melting point fell in the range of 197 to 199 °C. Moreover, the activity at 10 µM in data set [1] was found to be 94%. The inhibition in vivo at 30 mg/kg in data set [2] was 28.2%.

`CC(=O)CCCC(=O)NS(=O)(=O)c1ccccc1NC(=O)c1ccc(C#Cc2ccc(OC(F)(F)F)cc2)cc1` [compound 67, 4-(4-Trifluoromethoxyl)phenylethynyl-N-(2-(5-ketohexanoylamino)sulfonylphenyl)benzamide]: the melting point lay in the range of 204 to 205 °C. In addition, in data set [2], the inhibition in vivo at 30 mg/kg was 40.2%.

`CCCCCC(=O)NS(=O)(=O)c1ccccc1NC(=O)c1ccc(C#Cc2ccc(F)cc2)cc1` [compound 69, 4-(4-Fluoro)phenylethynyl-N-(2-hexanoylaminosulfonylphenyl)benzamide] yielded a melting point of 183 to 186 °C. Besides, the activity at 10 µM in data set [1] is 240%. Further, the inhibition in vivo at 30 mg/kg in data set [2] was 27.7%.

With `CC(=O)CCCC(=O)NS(=O)(=O)c1ccccc1NC(=O)c1ccc(C#Cc2ccc(F)cc2)cc1` [compound 70, 4-(4-Fluoro)phenylethynyl-N-(2-(5-ketohexanoylamino)sulfonylphenyl)benzamide], the melting point was in the range of 179 to 181 °C. For the same compound, in data set [2], the inhibition in vivo at 30 mg/kg was 30.5%.

Take `CCCCCC(=O)NS(=O)(=O)c1ccccc1NC(=O)c1ccc(C#Cc2cccc(F)c2)cc1` [compound 72, 4-(3-Fluoro)phenylethynyl-N-(2-hexanoylaminosulfonylphenyl)benzamide]: the melting point lay within 183 to 186 °C. In data set [1], the activity at 10 µM is 279%. Further, the inhibition in vivo at 30 mg/kg in data set [2] was 9.2%.

The inhibition in vivo is the percentage by which the read-out fell short of the control. What is called melting point is the temperature, or range, at which the solid turns liquid.

Source of the values: patent US20030191323A1, “Hypoglycemic agent” (Ajinomoto Co., Inc., priority 2000, published 2003).
